Assay results taken from patent US20060069132A1, “Azolecarboxamide herbicides” (priority 2004, published 2006).

Legend:
barnyardgrass [1] = test: Test A pre-/postemergence herbicide test; assay type: in vivo, Echinochloa crus-galli
Procedure, shortened: (§1)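 Pre: seeded sandy loam, directed soil spray, compound in non-phytotoxic solvent + surfactant. Post: 1–2-leaf plants (2–10 cm), sprayed to runoff. Greenhouse ~10 d; visual injury vs untreated, 0–100 scale.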

large crabgrass [2] = test: Test A pre-/postemergence herbicide test; assay type: in vivo, Digitaria sanguinalis
Procedure, shortened: as §1

giant foxtail [3] = test: Test A pre-/postemergence herbicide test; assay type: in vivo, Setaria faberi
Procedure, shortened: as §1

morningglory [4] = test: Test A pre-/postemergence herbicide test; assay type: in vivo, Ipomoea spp.
Procedure, shortened: as §1

redroot pigweed = test: Test A pre-/postemergence herbicide test; assay type: in vivo, Amaranthus retroflexus
Procedure, shortened: as §1

velvetleaf [5] = test: Test A pre-/postemergence herbicide test; assay type: in vivo, Abutilon theophrasti
Procedure, shortened: as §1

barnyardgrass [6] = test: Test B pre-/postemergence herbicide test; assay type: in vivo, Echinochloa crus-galli; details: for Barnyardgrass plant response rating: postemergence
Procedure, shortened: (§2)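 Pre: seeds sown, then sprayed. Post: 1–4-leaf plants (2–18 cm) sprayed at the same time. Paddy: flooded, treated at 2-leaf stage. Formulation: non-phytotoxic solvent with surfactant. Greenhouse 13–15 days; visual 0–100 score relative to controls.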

Surinam grass = test: Test B pre-/postemergence herbicide test; assay type: in vivo, Urochloa decumbens; details: for Surinam Grass plant response rating: postemergence
Procedure, shortened: (§3)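 Plants compared with untreated controls 13–15 days post-treatment and given a visual 0–100 injury score. Applications: preemergence to seeds; postemergence at 1- to 4-leaf (2–18 cm); paddy species flooded, 2-leaf stage. Vehicle non-phytotoxic, surfactant included.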

cocklebur = test: Test B pre-/postemergence herbicide test; assay type: in vivo, Xanthium strumarium; details: for Cocklebur plant response rating: postemergence
Procedure, shortened: as §2

corn = test: Test B pre-/postemergence herbicide test; assay type: in vivo, Zea mays; details: for Corn plant response rating: postemergence
Procedure, shortened: as §3

large crabgrass [7] = test: Test B pre-/postemergence herbicide test; assay type: in vivo, Digitaria sanguinalis; details: for Crabgrass, Large plant response rating: postemergence
Procedure, shortened: as §3

giant foxtail [8] = test: Test B pre-/postemergence herbicide test; assay type: in vivo, Setaria faberi; details: for Foxtail, Giant plant response rating: postemergence
Procedure, shortened: as §3

lambsquarters = test: Test B pre-/postemergence herbicide test; assay type: in vivo, Chenopodium album; details: for Lambsquarters plant response rating: postemergence
Procedure, shortened: as §3

morningglory [9] = test: Test B pre-/postemergence herbicide test; assay type: in vivo, Ipomoea coccinea; details: for Morningglory plant response rating: postemergence
Procedure, shortened: as §2

pigweed = test: Test B pre-/postemergence herbicide test; assay type: in vivo, Amaranthus retroflexus; details: for Pigweed plant response rating: postemergence
Procedure, shortened: as §3

rice [10] = test: Test B pre-/postemergence herbicide test; assay type: in vivo, Oryza sativa; details: preemergence
Procedure, shortened: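 Greenhouse pot assay with simultaneous preemergence (treated seed) and postemergence (2–18 cm seedlings) applications of surfactant-containing, non-phytotoxic solvent formulations. Response scored visually 13–15 days later on a 0–100 scale, 100 meaning complete control.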

velvetleaf [11] = test: Test B pre-/postemergence herbicide test; assay type: in vivo, Abutilon theophrasti; details: for Velvetleaf plant response rating: postemergence
Procedure, shortened: as §3

blackgrass = test: Test B postemergence herbicide test; assay type: in vivo, Alopecurus myosuroides; details: postemergence
Procedure, shortened: (§4)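 Read-out: visual comparison with controls, scored 0 to 100, where 100 means complete control and 0 no effect. Formulated chemicals were applied postemergence to plants 2–18 cm tall (1- to 4-leaf), or to flooded-paddy plants at the 2-leaf stage, then held 13 to 15 days under glass.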

wheat = test: Test B postemergence herbicide test; assay type: in vivo, Triticum aestivum; parameters: key to Wheat plant response rating: 0 = no effect, 100 = complete control; details: postemergence
Procedure, shortened: (§5)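 Scale 0–100: zero equals no visible effect, 100 complete control, judged by eye relative to controls. Timing: 13 to 15 days in greenhouse post-treatment. Growth stage at spraying: two leaves (paddy) or one to four leaves, 2–18 cm (postemergence).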

wild oat = test: Test B postemergence herbicide test; assay type: in vivo, Avena fatua; details: postemergence
Procedure, shortened: as §5

rice [12] = test: Test B flooded paddy test; assay type: in vivo, Oryza sativa; details: 1000 g ai/ha, scale 0 to 100 (0 no effect, 100 complete control)
Procedure, shortened: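 Formulated test chemicals went onto postemergence plants measuring 2 to 18 cm, at one to four leaves. For the paddy assay, species had reached two leaves. Scoring took place 13–15 days later by eye, relative to untreated plants, using 0 for no effect up to 100 for full control.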

[13] = tested on: small flower umbrella sedge; test: Test B flooded paddy test; assay type: in vivo, Cyperus difformis; details: 1000 g ai/ha, scale 0 to 100 (0 no effect, 100 complete control)
Procedure, shortened: as §4

ducksalad = test: Test B flooded paddy test; assay type: in vivo, Heteranthera limosa; details: 1000 g ai/ha, scale 0 to 100 (0 no effect, 100 complete control)
Procedure, shortened: as §4

barnyardgrass [14] = test: Test B flooded paddy test; assay type: in vivo, Echinochloa crus-galli; details: 1000 g ai/ha, scale 0 to 100 (0 no effect, 100 complete control)
Procedure, shortened: as §4

[15] = Postemergence, 500 g ai/ha, 0 to 100 scale, 0 no effect, 100 complete control
[16] = Postemergence, 2000 g ai/ha, 0 to 100 scale, 0 no effect, 100 complete control
[17] = Preemergence, 2000 g ai/ha, visual rating, 0 to 100 scale (0 no effect, 100 complete control)
[18] = preemergence, 500 g ai/ha, visual injury, 0 to 100 scale (0 no effect, 100 complete control)
[19] = 125 g ai/ha, 0 is no effect, 100 is complete control, preemergence
[20] = 125 g ai/ha, visual rating, scale 0 (no effect) to 100 (complete control)
[21] = 500 g ai/ha, visual rating, 0 = no effect, 100 = complete control, preemergence
[22] = 500 g ai/ha, scale 0 to 100, 0 is no effect, 100 is complete control

C#CCOC(=O)c1cccc(NC(=O)c2cc(C(C)(C)C)nn2C)n1 [Compound 317]
Barnyardgrass plant response rating (barnyardgrass [1]; [15]): 0
Plant response rating, Barnyardgrass (barnyardgrass [1]; [16]): 0
Barnyardgrass plant response rating (barnyardgrass [1]; [17]): 0
Barnyardgrass plant response rating (barnyardgrass [1]; [18]): 0
Crabgrass, Large plant response rating (large crabgrass [2]; [15]): 10
Plant response rating, Crabgrass, Large (large crabgrass [2]; [16]): 10
Crabgrass, Large plant response rating (large crabgrass [2]; [17]): 10
Crabgrass, Large plant response rating (large crabgrass [2]; [18]): 0
Foxtail, Giant plant response rating (giant foxtail [3]; [15]): 0
Plant response rating, Foxtail, Giant (giant foxtail [3]; [16]): 0
Foxtail, Giant plant response rating (giant foxtail [3]; [17]): 0
Foxtail, Giant plant response rating (giant foxtail [3]; [18]): 0
Morningglory plant response rating (morningglory [4]; [15]): 0
Plant response rating, Morningglory (morningglory [4]; [16]): 0
Morningglory plant response rating (morningglory [4]; [17]): 0
Morningglory plant response rating (morningglory [4]; [18]): 0
Pigweed plant response rating (redroot pigweed; [15]): 0
Plant response rating, Pigweed (redroot pigweed; [16]): 10
Pigweed plant response rating (redroot pigweed; [17]): 30
Pigweed plant response rating (redroot pigweed; [18]): 20
Velvetleaf plant response rating (velvetleaf [5]; [15]): 0
Plant response rating, Velvetleaf (velvetleaf [5]; [16]): 0
Velvetleaf plant response rating (velvetleaf [5]; [17]): 30
Velvetleaf plant response rating (velvetleaf [5]; [18]): 0
Plant response rating (0 to 100 scale), Barnyardgrass (barnyardgrass [6]; [19]): 0
Barnyardgrass plant response rating (barnyardgrass [6]; [20]): 0
Plant response rating, Barnyardgrass (barnyardgrass [6]; [21]): 0
Barnyardgrass plant response rating (barnyardgrass [6]; [22]): 0
Plant response rating (0 to 100 scale), Surinam Grass (Surinam grass; [19]): 0
Surinam Grass plant response rating (Surinam grass; [20]): 0
Plant response rating, Surinam Grass (Surinam grass; [21]): 0
Surinam Grass plant response rating (Surinam grass; [22]): 0
Plant response rating (0 to 100 scale), Cocklebur (cocklebur; [19]): 0
Cocklebur plant response rating (cocklebur; [20]): 0
Plant response rating, Cocklebur (cocklebur; [21]): 0
Cocklebur plant response rating (cocklebur; [22]): 0
Plant response rating (0 to 100 scale), Corn (corn; [19]): 0
Corn plant response rating (corn; [20]): 0
Plant response rating, Corn (corn; [21]): 0
Corn plant response rating (corn; [22]): 0
Plant response rating (0 to 100 scale), Crabgrass, Large (large crabgrass [7]; [19]): 0
Crabgrass, Large plant response rating (large crabgrass [7]; [20]): 0
Plant response rating, Crabgrass, Large (large crabgrass [7]; [21]): 0
Crabgrass, Large plant response rating (large crabgrass [7]; [22]): 0
Plant response rating (0 to 100 scale), Foxtail, Giant (giant foxtail [8]; [19]): 0
Foxtail, Giant plant response rating (giant foxtail [8]; [20]): 0
Plant response rating, Foxtail, Giant (giant foxtail [8]; [21]): 0
Foxtail, Giant plant response rating (giant foxtail [8]; [22]): 0
Plant response rating (0 to 100 scale), Lambsquarters (lambsquarters; [19]): 0
Lambsquarters plant response rating (lambsquarters; [20]): 0
Plant response rating, Lambsquarters (lambsquarters; [21]): 0
Lambsquarters plant response rating (lambsquarters; [22]): 50
Plant response rating (0 to 100 scale), Morningglory (morningglory [9]; [19]): 0
Morningglory plant response rating (morningglory [9]; [20]): 0
Plant response rating, Morningglory (morningglory [9]; [21]): 0
Morningglory plant response rating (morningglory [9]; [22]): 0
Plant response rating (0 to 100 scale), Pigweed (pigweed; [19]): 0
Pigweed plant response rating (pigweed; [20]): 0
Plant response rating, Pigweed (pigweed; [21]): 0
Pigweed plant response rating (pigweed; [22]): 0
Plant response rating (0 to 100 scale), Rice (rice [10]; 125 g ai/ha, 0 is no effect, 100 is complete control): 0
Plant response rating, Rice (rice [10]; 500 g ai/ha, visual rating, 0 = no effect, 100 = complete control): 0
Plant response rating (0 to 100 scale), Velvetleaf (velvetleaf [11]; [19]): 0
Velvetleaf plant response rating (velvetleaf [11]; [20]): 0
Plant response rating, Velvetleaf (velvetleaf [11]; [21]): 0
Velvetleaf plant response rating (velvetleaf [11]; [22]): 0
Blackgrass plant response rating (blackgrass; [20]): 0
Blackgrass plant response rating (blackgrass; [22]): 0
Wheat plant response rating (wheat; [20]): 0
Wheat plant response rating (wheat; [22]): 0
Oat, Wild plant response rating (wild oat; [20]): 0
Oat, Wild plant response rating (wild oat; [22]): 0
Rice plant response rating (rice [12]): 0
Sedge, Umbrella plant response rating [13]: 0
Ducksalad plant response rating (ducksalad): 0
Barnyardgrass plant response rating (barnyardgrass [14]): 0
